Results on seven compounds are retold here after ChEMBL document CHEMBL1201862, “PubChem BioAssay data set” (2004).

SMILES strings stand for the structures. The source made the active and inactive calls.

Test [1] deals with T1, ATP-dependent translocase ABCB1 (Homo sapiens, UniProt P08183). Briefly: inhibition of BCRP-mediated JC-1 efflux – Ig-MXP3 cells, flow cytometry, set 2, dose response (AID 504566).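 Note: flow cytometry median green fluorescence of retained JC-1 dye; potency of efflux pump inhibition measured as rising substrate retention.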 The note with it: read-out: EC50_MICROM_. The format is functional.
T1 sequence (P08183 whole entry): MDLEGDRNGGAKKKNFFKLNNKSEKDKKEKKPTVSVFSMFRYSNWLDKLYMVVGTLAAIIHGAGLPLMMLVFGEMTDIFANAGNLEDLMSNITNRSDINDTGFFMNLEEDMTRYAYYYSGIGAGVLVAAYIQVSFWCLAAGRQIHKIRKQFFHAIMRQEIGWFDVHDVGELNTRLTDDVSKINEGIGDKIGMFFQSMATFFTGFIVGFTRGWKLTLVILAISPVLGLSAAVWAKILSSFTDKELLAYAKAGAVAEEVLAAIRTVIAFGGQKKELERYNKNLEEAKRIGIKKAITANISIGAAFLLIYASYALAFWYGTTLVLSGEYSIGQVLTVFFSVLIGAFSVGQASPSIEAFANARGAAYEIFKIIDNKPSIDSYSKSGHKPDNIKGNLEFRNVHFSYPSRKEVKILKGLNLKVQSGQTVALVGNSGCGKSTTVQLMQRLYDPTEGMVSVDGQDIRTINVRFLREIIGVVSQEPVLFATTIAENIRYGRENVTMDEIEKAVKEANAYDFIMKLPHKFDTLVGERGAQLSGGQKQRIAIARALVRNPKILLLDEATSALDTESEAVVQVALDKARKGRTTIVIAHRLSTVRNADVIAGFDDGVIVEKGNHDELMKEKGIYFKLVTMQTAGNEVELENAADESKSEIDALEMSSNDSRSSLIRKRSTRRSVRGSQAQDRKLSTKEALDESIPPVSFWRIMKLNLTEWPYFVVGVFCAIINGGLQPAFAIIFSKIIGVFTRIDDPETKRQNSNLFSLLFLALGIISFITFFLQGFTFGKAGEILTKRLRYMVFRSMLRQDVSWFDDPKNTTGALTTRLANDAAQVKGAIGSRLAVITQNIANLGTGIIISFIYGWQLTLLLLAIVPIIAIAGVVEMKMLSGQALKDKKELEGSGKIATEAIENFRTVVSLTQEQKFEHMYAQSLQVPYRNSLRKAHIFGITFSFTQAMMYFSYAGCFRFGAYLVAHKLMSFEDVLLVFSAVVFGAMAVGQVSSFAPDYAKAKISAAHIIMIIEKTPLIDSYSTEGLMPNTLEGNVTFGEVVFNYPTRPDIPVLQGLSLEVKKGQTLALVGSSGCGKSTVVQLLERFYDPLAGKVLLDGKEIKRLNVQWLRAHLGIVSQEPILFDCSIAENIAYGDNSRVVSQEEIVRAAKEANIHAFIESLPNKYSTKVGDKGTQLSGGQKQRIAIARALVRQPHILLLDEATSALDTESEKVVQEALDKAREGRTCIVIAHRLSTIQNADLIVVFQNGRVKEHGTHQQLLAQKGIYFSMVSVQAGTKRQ
Test [2] concerns the target T1, ATP-dependent translocase ABCB1. Briefly: P-gp JC-1 efflux blockade concentration-response – Jurkat-DNR cells, flow cytometry, set 2, dose response (AID 504569).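 Note: potency of pump inhibitors that raise cellular JC-1 green fluorescence up to the nicardipine level.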 Type of test: functional. The note with it: read-out: EC50_MICROM_.
Test [3] has as its target Potassium voltage-gated channel subfamily KQT member 2 (Rattus norvegicus, UniProt O88943). Description: blockers of KCNQ2 channel current – cell-based, automated electrophysiology, set II, rat KCNQ2, dose response (AID 588637). Type of test: functional.
Test [4] is described as follows: inhibition of ARNT PAS-B/TACC3 complex formation – biochemical, AlphaScreen, cherry-picked samples, confirmation (AID 651703).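 Note: His-tagged ARNT PAS-B domain paired with GST-TACC3 E629A dimer coactivator fragment; potency of inhibitors that break up the complex and lower AlphaScreen signal.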 Type of test: functional, Homo sapiens.
Test [5] concerns the target Platelet-activating factor acetylhydrolase (Mus musculus, UniProt Q60963). Description: Late stage assay provider results from the probe development effort to identify inhibitors of pPAFAH: fluorescence-based dose-response biochemical gel-based competitive Activity-Based Protein Profiling (ABPP) assay for SAR compounds. Type of test: functional.
Test [6] deals with T2, Low molecular weight phosphotyrosine protein phosphatase (Homo sapiens, UniProt P24666). Type of test: functional. The note with it: read-out: IC50_Mean.
T2 sequence (P24666 whole entry): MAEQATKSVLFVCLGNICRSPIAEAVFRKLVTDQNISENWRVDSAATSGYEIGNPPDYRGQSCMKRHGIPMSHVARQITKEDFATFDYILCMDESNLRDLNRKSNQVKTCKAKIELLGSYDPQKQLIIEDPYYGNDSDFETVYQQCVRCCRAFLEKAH
Test [7] has as its target T2, Low molecular weight phosphotyrosine protein phosphatase. Type of test: functional. The following applies: read-out: IC50_Mean. This is another data set of the same source.
Test [8] concerns the target T3, Tyrosine-protein phosphatase non-receptor type 22 (Homo sapiens, UniProt Q9Y2R2).
T3 sequence (Q9Y2R2 whole entry): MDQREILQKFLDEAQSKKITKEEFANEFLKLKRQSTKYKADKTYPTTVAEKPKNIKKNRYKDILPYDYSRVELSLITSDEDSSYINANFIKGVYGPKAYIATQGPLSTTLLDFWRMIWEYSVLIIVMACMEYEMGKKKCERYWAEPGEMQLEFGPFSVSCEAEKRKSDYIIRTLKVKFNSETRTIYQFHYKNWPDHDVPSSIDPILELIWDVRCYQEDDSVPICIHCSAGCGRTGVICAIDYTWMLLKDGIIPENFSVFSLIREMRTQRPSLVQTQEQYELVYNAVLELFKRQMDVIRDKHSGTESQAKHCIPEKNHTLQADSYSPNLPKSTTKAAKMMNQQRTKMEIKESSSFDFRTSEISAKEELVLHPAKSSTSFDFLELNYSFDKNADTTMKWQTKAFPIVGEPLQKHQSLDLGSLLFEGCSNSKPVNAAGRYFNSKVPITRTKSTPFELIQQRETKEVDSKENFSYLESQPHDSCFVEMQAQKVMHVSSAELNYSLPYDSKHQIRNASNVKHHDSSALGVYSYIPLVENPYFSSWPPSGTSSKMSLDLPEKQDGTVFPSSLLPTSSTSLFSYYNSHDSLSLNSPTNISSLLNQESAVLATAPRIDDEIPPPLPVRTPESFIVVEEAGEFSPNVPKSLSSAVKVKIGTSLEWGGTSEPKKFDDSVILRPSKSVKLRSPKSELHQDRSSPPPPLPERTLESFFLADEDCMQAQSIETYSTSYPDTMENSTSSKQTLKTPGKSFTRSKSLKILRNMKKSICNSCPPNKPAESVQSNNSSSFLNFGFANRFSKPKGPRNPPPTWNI
Briefly: PTPN22 enzyme inhibitors – biochemical, fluorescence, LYP catalytic domain, selectivity assay for LMPTP inhibitor project, dose response (AID 652006). Type of test: functional. The following applies: read-out: IC50_Mean.

In test [9] the target is Mitochondrial peptide methionine sulfoxide reductase (Bos taurus, UniProt P54149). Briefly: Absorbance-based biochemical high throughput dose response assay for activators of Methionine sulfoxide reductase A (MsrA). Type of test: functional.
Sequence of Mitochondrial peptide methionine sulfoxide reductase (P54149 whole entry): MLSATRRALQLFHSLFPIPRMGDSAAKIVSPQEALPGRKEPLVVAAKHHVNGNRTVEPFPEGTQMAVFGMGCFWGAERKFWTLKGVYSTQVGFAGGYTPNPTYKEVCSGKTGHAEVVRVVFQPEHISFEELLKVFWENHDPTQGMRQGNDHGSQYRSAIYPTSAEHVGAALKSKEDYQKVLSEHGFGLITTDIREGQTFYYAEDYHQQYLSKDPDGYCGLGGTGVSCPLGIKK
The target in a further test is Paired box protein Pax-8 (Homo sapiens, UniProt Q06710). Briefly: PAX8 transcriptional activity inhibition in RMG-I – RMG-I cells, luciferase, cherry-pick, dose response (AID 687027).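 Note: luciferase reporter driven by Pax8 target thyroperoxidase promoter measured by SteadyGlo luminescence.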 Type of test: functional, cell-based.
Sequence of Paired box protein Pax-8 (Q06710 whole entry): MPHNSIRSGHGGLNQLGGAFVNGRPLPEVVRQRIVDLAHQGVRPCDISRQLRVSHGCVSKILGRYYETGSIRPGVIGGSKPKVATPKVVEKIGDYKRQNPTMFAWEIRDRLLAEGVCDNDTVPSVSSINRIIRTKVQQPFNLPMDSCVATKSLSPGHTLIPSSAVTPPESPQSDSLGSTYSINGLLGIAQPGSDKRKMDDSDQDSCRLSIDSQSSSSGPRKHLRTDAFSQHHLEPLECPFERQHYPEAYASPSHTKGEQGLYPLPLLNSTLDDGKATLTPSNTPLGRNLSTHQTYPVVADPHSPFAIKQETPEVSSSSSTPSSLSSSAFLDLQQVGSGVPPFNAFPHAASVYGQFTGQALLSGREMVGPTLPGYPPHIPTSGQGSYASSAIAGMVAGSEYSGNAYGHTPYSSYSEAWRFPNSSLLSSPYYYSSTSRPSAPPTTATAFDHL
Test [10] deals with T4, Histone-lysine N-methyltransferase NSD2 (Homo sapiens, UniProt O96028).
T4 sequence (O96028 whole entry): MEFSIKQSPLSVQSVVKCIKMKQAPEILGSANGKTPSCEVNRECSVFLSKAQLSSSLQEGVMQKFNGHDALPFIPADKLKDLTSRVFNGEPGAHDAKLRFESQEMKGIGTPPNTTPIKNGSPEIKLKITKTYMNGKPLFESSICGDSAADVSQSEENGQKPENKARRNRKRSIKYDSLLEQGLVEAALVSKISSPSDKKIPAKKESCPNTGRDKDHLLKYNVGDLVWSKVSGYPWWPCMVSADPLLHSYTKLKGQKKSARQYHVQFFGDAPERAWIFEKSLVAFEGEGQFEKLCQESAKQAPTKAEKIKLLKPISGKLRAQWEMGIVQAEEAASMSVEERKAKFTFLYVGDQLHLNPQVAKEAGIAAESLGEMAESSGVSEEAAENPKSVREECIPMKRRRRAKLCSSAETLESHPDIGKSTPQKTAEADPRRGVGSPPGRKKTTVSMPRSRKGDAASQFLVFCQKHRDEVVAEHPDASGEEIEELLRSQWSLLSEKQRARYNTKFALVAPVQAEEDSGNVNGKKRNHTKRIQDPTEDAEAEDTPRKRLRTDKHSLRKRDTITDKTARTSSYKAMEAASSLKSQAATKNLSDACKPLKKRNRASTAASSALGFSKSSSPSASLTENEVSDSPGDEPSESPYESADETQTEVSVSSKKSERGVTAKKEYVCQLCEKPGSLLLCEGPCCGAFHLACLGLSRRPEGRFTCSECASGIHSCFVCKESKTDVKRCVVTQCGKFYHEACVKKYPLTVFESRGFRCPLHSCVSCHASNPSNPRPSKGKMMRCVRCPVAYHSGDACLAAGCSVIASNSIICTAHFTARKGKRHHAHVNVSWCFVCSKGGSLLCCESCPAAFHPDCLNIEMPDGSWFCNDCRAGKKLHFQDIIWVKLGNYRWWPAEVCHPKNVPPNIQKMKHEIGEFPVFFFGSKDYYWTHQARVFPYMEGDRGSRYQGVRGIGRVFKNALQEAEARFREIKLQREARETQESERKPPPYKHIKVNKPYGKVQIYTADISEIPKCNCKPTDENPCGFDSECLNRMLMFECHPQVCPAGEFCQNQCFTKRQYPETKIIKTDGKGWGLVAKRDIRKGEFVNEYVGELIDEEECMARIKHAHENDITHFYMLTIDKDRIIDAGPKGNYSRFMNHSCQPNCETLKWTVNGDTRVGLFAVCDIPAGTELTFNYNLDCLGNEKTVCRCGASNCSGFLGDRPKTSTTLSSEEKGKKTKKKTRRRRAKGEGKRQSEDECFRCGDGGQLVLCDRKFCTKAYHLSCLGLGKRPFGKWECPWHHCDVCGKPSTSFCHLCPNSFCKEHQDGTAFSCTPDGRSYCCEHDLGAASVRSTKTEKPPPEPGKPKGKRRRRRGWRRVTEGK
Type of test: biochemical.

Test [11] has as its target Tyrosyl-DNA phosphodiesterase 2 (Homo sapiens, UniProt O95551). Description: potency against TDP2 phosphodiesterase activity – biochemical, epi absorbance, IC50, dose response (AID 743297).
A short description of test [12]: luciferase reporter signal suppression in cells – H4 neuroglioma cells, luminescence, dose response (AID 1990). Type of test: functional, cell-based.
Test [13] is described as follows: Luminescence Cell-Based Dose Response HTS to Identify Inhibitors of 5'UTR Stem-Loop Driven Prion Protein mRNA Translation in H4 Neuroglioblastoma Cells. [Related pubchem assays: 1827 (Project Summary), 1813 (Primary HTS)]. Type of test: functional.
Test [14] is described as follows: alpha-synuclein stem-loop luciferase translation blockers – H4 neuroglioma cells, luminescence, confirmation (AID 1988). The format is functional, cell-based.
Test [15] concerns the target Induced myeloid leukemia cell differentiation protein Mcl-1 (Homo sapiens, UniProt Q07820). The format is functional.
The nature of test [16]: bead-based luminescence quenchers, dual-tagged ARNT – biochemical, AlphaScreen, cherry-pick, artefact control for ARNT-TACC3 interaction inhibitor project, dose response (AID 651705).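 Note: AlphaScreen bead proximity signal that flags compounds interfering with the detection technology; potency reflects signal decrease which marks the compound as an assay artifact.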 The format is functional.

Sequence of Tyrosyl-DNA phosphodiesterase 2 (O95551 whole entry): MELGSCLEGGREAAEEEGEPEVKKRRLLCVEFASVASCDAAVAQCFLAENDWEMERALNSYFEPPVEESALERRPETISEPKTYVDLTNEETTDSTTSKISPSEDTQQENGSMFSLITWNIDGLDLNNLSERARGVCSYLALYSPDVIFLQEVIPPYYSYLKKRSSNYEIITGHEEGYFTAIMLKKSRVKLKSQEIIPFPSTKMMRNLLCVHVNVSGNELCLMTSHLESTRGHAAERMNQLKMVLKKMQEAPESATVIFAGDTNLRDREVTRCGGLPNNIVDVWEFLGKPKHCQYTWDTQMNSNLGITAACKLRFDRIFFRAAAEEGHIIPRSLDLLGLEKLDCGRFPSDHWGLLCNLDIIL
Sequence of Potassium voltage-gated channel subfamily KQT member 2 (O88943 whole entry, the tested form may be a part): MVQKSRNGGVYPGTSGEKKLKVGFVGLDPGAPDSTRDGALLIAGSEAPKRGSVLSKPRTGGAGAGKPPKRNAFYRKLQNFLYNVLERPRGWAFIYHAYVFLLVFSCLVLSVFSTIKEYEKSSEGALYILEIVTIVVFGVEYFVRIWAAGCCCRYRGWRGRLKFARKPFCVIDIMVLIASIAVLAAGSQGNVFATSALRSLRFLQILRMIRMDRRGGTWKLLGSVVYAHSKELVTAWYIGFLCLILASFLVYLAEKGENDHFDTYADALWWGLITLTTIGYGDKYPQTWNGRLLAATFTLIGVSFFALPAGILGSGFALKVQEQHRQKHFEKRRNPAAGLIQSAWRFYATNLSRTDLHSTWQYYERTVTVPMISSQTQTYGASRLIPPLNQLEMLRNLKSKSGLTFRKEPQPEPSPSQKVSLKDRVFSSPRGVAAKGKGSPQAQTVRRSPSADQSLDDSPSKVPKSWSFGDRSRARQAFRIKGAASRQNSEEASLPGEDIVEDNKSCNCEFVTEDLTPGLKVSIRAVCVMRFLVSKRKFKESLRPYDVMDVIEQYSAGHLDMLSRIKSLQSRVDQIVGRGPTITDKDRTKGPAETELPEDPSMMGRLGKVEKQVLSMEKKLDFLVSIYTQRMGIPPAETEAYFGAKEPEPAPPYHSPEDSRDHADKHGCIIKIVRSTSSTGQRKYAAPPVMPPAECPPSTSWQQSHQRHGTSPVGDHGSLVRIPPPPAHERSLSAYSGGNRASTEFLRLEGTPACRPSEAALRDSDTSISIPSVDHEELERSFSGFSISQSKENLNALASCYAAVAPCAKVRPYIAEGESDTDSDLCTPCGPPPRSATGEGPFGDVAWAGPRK
Sequence of Induced myeloid leukemia cell differentiation protein Mcl-1 (Q07820 whole entry): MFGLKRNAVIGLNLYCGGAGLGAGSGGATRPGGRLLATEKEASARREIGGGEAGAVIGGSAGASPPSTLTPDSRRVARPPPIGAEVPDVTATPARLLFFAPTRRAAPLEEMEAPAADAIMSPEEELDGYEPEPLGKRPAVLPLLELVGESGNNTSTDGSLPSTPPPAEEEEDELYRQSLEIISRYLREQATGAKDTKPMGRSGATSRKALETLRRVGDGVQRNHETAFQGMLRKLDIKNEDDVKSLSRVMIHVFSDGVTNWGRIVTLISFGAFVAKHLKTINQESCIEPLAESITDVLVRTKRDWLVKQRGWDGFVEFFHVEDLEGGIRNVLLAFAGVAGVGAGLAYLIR
Sequence of Platelet-activating factor acetylhydrolase (Q60963 whole entry): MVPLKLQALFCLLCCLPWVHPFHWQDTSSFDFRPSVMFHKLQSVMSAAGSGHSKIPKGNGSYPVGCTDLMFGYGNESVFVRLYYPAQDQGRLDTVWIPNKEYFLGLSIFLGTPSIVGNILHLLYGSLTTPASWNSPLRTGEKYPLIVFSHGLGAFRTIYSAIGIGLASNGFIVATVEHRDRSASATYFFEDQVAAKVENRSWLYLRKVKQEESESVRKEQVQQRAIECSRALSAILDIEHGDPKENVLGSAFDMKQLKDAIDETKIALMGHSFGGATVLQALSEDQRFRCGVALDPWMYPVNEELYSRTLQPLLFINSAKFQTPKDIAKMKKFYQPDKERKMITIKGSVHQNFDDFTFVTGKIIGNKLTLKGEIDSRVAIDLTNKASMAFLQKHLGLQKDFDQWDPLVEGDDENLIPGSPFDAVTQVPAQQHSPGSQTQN

On to `O=C(c1ccoc1)N1CCN(c2cc(-c3cccnc3)nc3cc(-c4cccc(Cl)c4)nn23)CC1`, for which the EC50 in [1] is 0.26 µM (active); in [2] it was 0.97 µM (active).
With `O=C(COc1ccc(F)cc1)N(c1ccccn1)C1CCCCC1`, the IC50 in test [3] was 1.49 µM (active).
Consider `CN1CCN(/N=C/c2nc(-c3ccccc3Cl)n3ccccc23)CC1`, for which the AC50 in test [4] is 75.6 µM (active).
For the compound `Cc1cc(N2CCN(C(=O)Oc3ccc(C(F)(F)F)cc3)CC2)c2ccccc2n1`, the IC50 in [5] was 0.041 µM (active).
Consider `CC(=O)Nc1ccc(CNc2nc(NCc3cccs3)nc3ccsc23)cc1`, for which the results for the IC50 in [6], in test [7] and in test [8] were 15.5 µM (active), 13.6 µM (active) and 49.5 µM (inactive), respectively.
For the compound `NC1=CC(=O)C(=O)c2cccnc21`, the EC50 in [9] was > 34.6 µM (inactive). Further, the AC50 on Paired box protein Pax-8 is 10.5 µM (active); in test [10], 0.546 µM (active). For the same compound, the IC50 in [11] is 5.99 µM (active).
As to `COc1cc2c(cc1O)C[C@H]1NCCc3cc4c(c-2c31)OCO4`, the EC50 in test [12] is 13.2 µM (active); in test [13], 85.6 µM (active); in test [14] it was > 120 µM (not active). Further, the IC50 in [15] is 5.61 µM (active). Also, the AC50 in [16] is 84.2 µM (active).
